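Assay format: 96-well plates, 48-hour exposure. At the GI50, growth is halved.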 Activity calls are given as the source filed them. No stated cut-off is given here; in the data, active = GI50 up to about 1.1 µM and inactive = higher.
Experiments:
Assay in all cases: NCI-60 cell line screen, 48 h
ACHN = system: ACHN
NCI-H460 = system: NCI-H460
HCT-116 = system: HCT-116
T47D = system: T47D
COLO 205 = system: COLO 205
SNB-75 = system: SNB-75
MCF7 = system: MCF7
TK-10 = system: TK-10
UACC-62 = system: UACC-62
NCI-H522 = system: NCI-H522
SK-OV-3 = system: SK-OV-3
RPMI-8226 = system: RPMI-8226
A549 = system: A549
EKVX = system: EKVX
DU-145 = system: DU-145
HT-29 = system: HT-29
SF-295 = system: SF-295
IGROV-1 = system: IGROV-1
OVCAR-3 = system: OVCAR-3

## CCN(CC)C(=S)SNc1ccc(S(N)(=O)=O)cc1
ACHN
  GI50: 45.1 µM (inactive)
NCI-H460
  GI50: 38.7 µM (inactive)
HCT-116
  GI50: 47.3 µM (inactive)
T47D
  GI50: 91.6 µM (inactive)
COLO 205
  GI50: 68.7 µM (inactive)
SNB-75
  GI50: > 72.9 µM (inactive)
MCF7
  GI50: 0.0383 µM (active)
TK-10
  GI50: > 100 µM (inactive)
UACC-62
  GI50: > 100 µM (inactive)
NCI-H522
  GI50: 0.0755 µM (active)
SK-OV-3
  GI50: > 100 µM (inactive)
RPMI-8226
  GI50: 20.2 µM (inactive)
A549
  GI50: 74.6 µM (inactive)
EKVX
  GI50: > 100 µM (inactive)
DU-145
  GI50: > 92.9 µM (inactive)
HT-29
  GI50: 24.6 µM (inactive)
SF-295
  GI50: > 66.5 µM (inactive)
IGROV-1
  GI50: 2.11 µM (inactive)

## O=C(O)C1CCCN1C(=O)c1cc(Cl)ccn1 (configuration not stated)
ACHN
  GI50: > 100 µM (inactive)
NCI-H460
  GI50: > 100 µM (inactive)
HCT-116
  GI50: > 100 µM (inactive)
T47D
  GI50: > 100 µM (inactive)
COLO 205
  GI50: > 100 µM (inactive)
SNB-75
  GI50: > 100 µM (inactive)
MCF7
  GI50: > 100 µM (inactive)
TK-10
  GI50: > 100 µM (inactive)
UACC-62
  GI50: > 100 µM (inactive)
NCI-H522
  GI50: > 100 µM (inactive)
OVCAR-3
  GI50: > 100 µM (inactive)
RPMI-8226
  GI50: > 100 µM (inactive)
A549
  GI50: > 100 µM (inactive)
EKVX
  GI50: > 100 µM (inactive)
DU-145
  GI50: > 100 µM (inactive)
HT-29
  GI50: > 100 µM (inactive)
SF-295
  GI50: > 100 µM (inactive)
IGROV-1
  GI50: > 100 µM (inactive)

## O=C1CSC2=NC3=C(COC/C3=C\c3ccc(Br)cc3)C(c3ccc(Br)cc3)N12 (configuration not stated)
ACHN
  GI50: 82.8 µM (inactive)
NCI-H460
  GI50: 51.2 µM (inactive)
HCT-116
  GI50: 40.2 µM (inactive)
T47D
  GI50: 53.2 µM (inactive)
COLO 205
  GI50: 58.7 µM (inactive)
SNB-75
  GI50: 70.5 µM (inactive)
MCF7
  GI50: 44.4 µM (inactive)
TK-10
  GI50: 97.9 µM (inactive)
UACC-62
  GI50: > 100 µM (inactive)
NCI-H522
  GI50: 3.92 µM (inactive)
SK-OV-3
  GI50: > 100 µM (inactive)
OVCAR-3
  GI50: 61 µM (inactive)
RPMI-8226
  GI50: 20.9 µM (inactive)
EKVX
  GI50: > 100 µM (inactive)
DU-145
  GI50: > 100 µM (inactive)
SF-295
  GI50: 55.7 µM (inactive)
IGROV-1
  GI50: 98.6 µM (inactive)

## CO/C(N)=C(C#N)/N=C/c1ccco1
ACHN
  GI50: > 100 µM (inactive)
HCT-116
  GI50: > 100 µM (inactive)
T47D
  GI50: > 100 µM (inactive)
COLO 205
  GI50: > 100 µM (inactive)
SNB-75
  GI50: > 100 µM (inactive)
MCF7
  GI50: > 100 µM (inactive)
TK-10
  GI50: > 100 µM (inactive)
UACC-62
  GI50: > 100 µM (inactive)
NCI-H522
  GI50: > 100 µM (inactive)
SK-OV-3
  GI50: > 100 µM (inactive)
OVCAR-3
  GI50: > 100 µM (inactive)
RPMI-8226
  GI50: > 100 µM (inactive)
A549
  GI50: > 100 µM (inactive)
EKVX
  GI50: > 100 µM (inactive)
DU-145
  GI50: > 100 µM (inactive)
HT-29
  GI50: > 100 µM (inactive)
SF-295
  GI50: > 100 µM (inactive)
IGROV-1
  GI50: > 100 µM (inactive)

## Nc1nc(N)c2ncn(Cc3c(Cl)cccc3Cl)c2n1
ACHN
  GI50: > 100 µM (inactive)
HCT-116
  GI50: > 100 µM (inactive)
T47D
  GI50: > 100 µM (inactive)
COLO 205
  GI50: > 100 µM (inactive)
SNB-75
  GI50: 1.6 µM (inactive)
MCF7
  GI50: > 100 µM (inactive)
TK-10
  GI50: > 100 µM (inactive)
UACC-62
  GI50: > 100 µM (inactive)
NCI-H522
  GI50: > 100 µM (inactive)
SK-OV-3
  GI50: > 100 µM (inactive)
OVCAR-3
  GI50: > 100 µM (inactive)
RPMI-8226
  GI50: > 100 µM (inactive)
A549
  GI50: > 100 µM (inactive)
EKVX
  GI50: 28.4 µM (inactive)
DU-145
  GI50: > 100 µM (inactive)
HT-29
  GI50: > 100 µM (inactive)
SF-295
  GI50: > 100 µM (inactive)
IGROV-1
  GI50: > 100 µM (inactive)

## CCOC(=O)c1cccn1S(=O)(=O)c1cc(Cl)ccc1NC(=O)CC
ACHN
  GI50: > 100 µM (inactive)
NCI-H460
  GI50: 50.1 µM (inactive)
HCT-116
  GI50: 40 µM (inactive)
T47D
  GI50: 44.9 µM (inactive)
COLO 205
  GI50: 16.3 µM (inactive)
SNB-75
  GI50: 33.3 µM (inactive)
MCF7
  GI50: > 100 µM (inactive)
TK-10
  GI50: > 100 µM (inactive)
UACC-62
  GI50: 58.9 µM (inactive)
NCI-H522
  GI50: 18.5 µM (inactive)
SK-OV-3
  GI50: 43.3 µM (inactive)
OVCAR-3
  GI50: > 100 µM (inactive)
RPMI-8226
  GI50: 75.9 µM (inactive)
A549
  GI50: 54.1 µM (inactive)
EKVX
  GI50: 61.7 µM (inactive)
DU-145
  GI50: > 100 µM (inactive)
SF-295
  GI50: 35.2 µM (inactive)
IGROV-1
  GI50: > 100 µM (inactive)

## [O-][N+](CCO)(CCO)c1ncnc2[nH]cnc12
ACHN
  GI50: > 100 µM (inactive)
HCT-116
  GI50: > 100 µM (inactive)
T47D
  GI50: > 100 µM (inactive)
COLO 205
  GI50: > 100 µM (inactive)
SNB-75
  GI50: > 100 µM (inactive)
MCF7
  GI50: 76.6 µM (inactive)
TK-10
  GI50: > 100 µM (inactive)
UACC-62
  GI50: > 100 µM (inactive)
NCI-H522
  GI50: > 100 µM (inactive)
SK-OV-3
  GI50: > 100 µM (inactive)
OVCAR-3
  GI50: > 100 µM (inactive)
RPMI-8226
  GI50: > 100 µM (inactive)
A549
  GI50: > 100 µM (inactive)
EKVX
  GI50: > 100 µM (inactive)
DU-145
  GI50: > 100 µM (inactive)
HT-29
  GI50: > 100 µM (inactive)
SF-295
  GI50: > 100 µM (inactive)
IGROV-1
  GI50: > 100 µM (inactive)

## CC(C)n1c2c(c3ccccc3c1=O)C(=O)c1ccccc1-2
HCT-116
  GI50: > 100 µM (inactive)
T47D
  GI50: > 100 µM (inactive)
COLO 205
  GI50: > 100 µM (inactive)
SNB-75
  GI50: > 100 µM (inactive)
MCF7
  GI50: > 100 µM (inactive)
TK-10
  GI50: > 100 µM (inactive)
UACC-62
  GI50: > 100 µM (inactive)
NCI-H522
  GI50: > 100 µM (inactive)
SK-OV-3
  GI50: > 100 µM (inactive)
OVCAR-3
  GI50: > 100 µM (inactive)
RPMI-8226
  GI50: > 100 µM (inactive)
A549
  GI50: > 100 µM (inactive)
EKVX
  GI50: > 100 µM (inactive)
DU-145
  GI50: > 100 µM (inactive)
HT-29
  GI50: > 100 µM (inactive)
SF-295
  GI50: > 100 µM (inactive)
IGROV-1
  GI50: > 100 µM (inactive)

Source: ChEMBL document CHEMBL1201862, “PubChem BioAssay data set” (2004)
